Results from patent US7115544B2, “Plant growth regulators for cotton hervest” (Sumitomo Chemical Company, Limited, priority 2001, dated 2006).

Tests used:
cotton plants = test: Field test on cotton plants at boll opening: defoliation ratio and boll opening after foliar spray; format: in vivo; conditions: for Defoliation ratio (%) Rep. 1 / Defoliation ratio (%) Rep. 2 / Defoliation ratio (%) Rep. 3: 20 g/ha, emulsifiable concentrate diluted with water containing 1% (v/v) COC, day 14 after the treatment; for Defoliation ratio (%) Rep. 1: replication 1 about 60% of open bolls; for Defoliation ratio (%) Rep. 2: replication 2 about 60 to 70% of open bolls; for Defoliation ratio (%) Rep. 3: replication 3 80 to 85% of open bolls; for cotton boll opening: field test, sprayed at the time of cotton boll opening
Method: The test results were evaluated according to the following criteria: Defoliation ratio (%)=(the number of dropped leaves/the total number of leaves examined)×100
Cotton seeds were planted and grown in the field. At the time of cotton boll opening, 2.5 parts of each of compounds […], 10 parts of Sorpol 3890 (Toho Chemical Industry Co., Ltd.), and 87.5 parts of SOLVESSO 200 (Exxon Mobile Chemical Company) were well mixed to give an emulsifiable concentrate for each compound, which was then diluted at a prescribed dose with water containing 1% (v/v) crop oil concentrate (COC), and the dilution was uniformly sprayed to the plants. Treatments were carried out with three replications. Replication 1 had about 60% of open bolls; replication 2 had about 60 to 70% of open bolls; replication 3 had 80 to 85% of open boils. The treated fields are each 4 m×6.4 m in area, and the cotton plants on day 14 after the treatment were examined for the defoliation ratio.

Row | SMILES | Defoliation ratio (%) Rep. 1 (cotton plants) | Defoliation ratio (%) Rep. 2 (cotton plants) | Defoliation ratio (%) Rep. 3 (cotton plants) | cotton boll opening (cotton plants) | melting point
1 | COC(=O)COc1ccccc1Oc1cc(-n2c(=O)cc(C(F)(F)F)n(C)c2=O)c(F)cc1Cl [Compound a-5, methyl [2-{2-chloro-4-fluoro-5-[3-methyl-2,6-dioxo-4-(trifluoromethyl)-1,2,3,6-tetrahydropyrimidin-1-yl]phenoxy}phenoxy]acetate] | 85% | 90% | 82% | stimulated cotton boll opening | 
2 | Cn1c(C(F)(F)F)cc(=O)n(-c2cc(Oc3ccccc3OCC(=O)OC(C)(C)C)c(Cl)cc2F)c1=O [Compound a-121, t-butyl [2-{2-chloro-4-fluoro-5-[3-methyl-2,6-dioxo-4-(trifluoromethyl)-1,2,3,6-tetrahydropyrimidin-1-yl]phenoxy}phenoxy]acetate] |  |  |  |  | 55.6 °C
3 | COC(=O)COc1ncccc1Oc1cc(-n2c(=O)cc(C(F)(F)F)n(C)c2=O)c(F)cc1Cl [Compound a-6, methyl [3-{2-chloro-4-fluoro-5-[3-methyl-2,6-dioxo-4-(trifluoromethyl)-1,2,3,6-tetrahydropyrimidin-1-yl]phenoxy}-2-pyridyloxy]acetate] | 80% | 75% | 85% | stimulated cotton boll opening | 
